# Test results published in patent publication US12521393B2, “Cytotoxicity targeting chimeras for CCR2-expressing cells” (GLAXOSMITHKLINE INTELLECTUAL PROPERTY DEVELOPMENT LIMITED, priority 2021, dated 2026).
# Several values for one entry are separate records, joined by “and”; a condition that tells them apart may be missing. Equal values may be shown once.
# Tests used:
# [1] = tested on: endogenous target monocytes in human PBMC; assay: PBMC ex vivo monocyte depletion flow cytometry assay (Example 200); assay type: cell-based; conditions: with anti-cotinine antibody (SEQ ID NO: 11/12), 18-24 hours, EC50 in molar; for EC50: read-out: Ex Vivo Depletion Assay pEC50 (converted)
# In short: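 Monocyte depletion is reported as pEC50, averaged or given individually across runs, and read by flow cytometry staining CD45, CD14 and CD4 with a viability dye. Compounds, diluted four-fold over 11 points from 1 mM DMSO stocks, were combined with 30 μg/mL Fc-enhanced anti-cotinine antibody and human PBMC, then incubated 18-24 h at 37° C.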
# [2] = target: T1, CHOK1 cells engineered to overexpress human CCR2 (Homo sapiens, UniProt P41597); assay: Antibody dependent cellular cytotoxicity (ADCC) reporter assay (Example 199); assay type: cell-based; conditions: with anti-cotinine antibody (SEQ ID NO: 11/12), Jurkat FcγRIIIa NFAT-luciferase reporter cells, 12-18 hours, EC50 in molar, average or individual runs; for EC50: read-out: ADCC Reporter Assay pEC50 (converted)
# T1 construct: expressed in transfected cells; host or cells: CHOK1
# Experimental: An antibody dependent cellular cytoxocity reporter assay was conducted using the following four assay components: (i) ARM compound of Formula (I) targeting CCR2 (concentrations ranging from […] to 10 μM) (ii) anti-cotinine antibody having a heavy chain sequence of SEQ ID NO: 11 and a light chain sequence of SEQ ID NO: 12 (rabbit variable region with human IgG1 Fc domain containing a DE mutation (S239D/1332E)) (concentrations ranging from 0.01 μg/mL to 200 μg/mL); (iii) target cells: CHOK1 cells engineered to overexpress either human CCR2 (typically 1000-20,000 cells per well) and (iv) reporter cells: Jurkat cells engineered to express FcγRIIIa with the reporter gene luciferase under the control of the NFAT promoter (typically 3000-75,000 cells per well). Reagents were combined in a final volume of 20 μL in a 384-well tissue culture treated plate. All four assay components were incubated together for about 12-18 hours. Thereafter, BioGlo Detection reagent (Promega) was added to the wells to lyse the cells and provide a substrate for the luciferase reporter protein. Luminescence signal was measured on a microplate reader and signal: background was calculated by dividing the signal of a test well by the signal obtained when no heterobivalent compound of Formula (I) was added. EC50 calculations were done using Graphpad Prism Software, specifically a nonlinear regression curve fit (Y=Bottom+(Top−Bottom)/(1+10A((LogEC50−X)*HillSlope))).
# ARMs compounds of Formula (I) of the invention were tested for ADCC activity in the above assay in or more experimental runs and the results are shown in Table 3 below. Potency of the compounds of Formula (I) of the invention is reported as a pEC50 value. The pEC50 value is the negative log of the EC50 value, wherein the EC50 value is the half maximal effective concentration measured in molar (M). For compounds tested in more than one experimental run, the pEC50 value is reported as an average.
# [3] = target: anti-cotinine antibody (SEQ ID NO: 11/12, rabbit variable region with human IgG1 Fc DE mutation); assay: SPR binding of anti-cotinine antibody to ARM compounds, Biacore T200, 37° C. (Example 202); conditions: SPR Biacore T200, 37° C., pH 7.4, antibody SEQ ID NO: 11/12 captured on protein A; Kd in molar
# In short: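 Antibody captured on a protein A chip; ARM compounds injected at 100 μL/min (200 s association, 2000 s dissociation), 3-fold 5-point series from 200 nM, at 37 °C in HEPES pH 7.4 buffer with 0.005% P20 and 1% DMSO. Double-referenced sensorgrams fit 1:1 for kon, koff, Kd (koff/kon), residence time (1/koff); pKd averaged across runs.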
# [4] = tested on: CCR2 expressing cells (CD11b+Ly6c+Hi) in peripheral blood; assay: In vivo depletion assay, flow cytometry of peripheral blood (Example 201); set-up: species or system human CCR2 knock-in mice (C57 background); conditions: hCCR2 knock-in mice, IV 0.1 mpk compound + 10 mpk anti-cotinine antibody (SEQ ID NO: 13/14), peripheral blood at 48 hr
# In short: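 Mice dosed with compound formulated in saline/DMSO/PBS, with anti-cotinine antibody (rabbit variable region, mouse IgG2a Fc) where required, pre-incubated 30 min at room temperature. Terminal peripheral blood RBC-lysed, Fc-blocked, stained for CD45, CD3, CD11b, Ly6C, human CCR2 and 7AAD; percent depletion of CD11b+Ly6c+Hi cells determined by flow cytometry.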
# [5] = Blood drug concentration analysis by LC-MS/MS after IV dosing with anti-cotinine antibody (Example 201); assay type: in vivo; conditions: C57 background, human CCR2 knock-in, mouse; hCCR2 knock-in mice, IV 0.1 mpk compound + 10 mpk anti-cotinine antibody, whole blood, 48 hours post-dose; read-out: Exposure of Compound of Formula (I) 48 hours post-dose
# Experimental: After bleeding, each mouse was sacrificed by cervical dislocation. […] Flow Cytometry Analysis:
# Samples were analyzed on Q-Trap. […] The total run time was 2 minutes.
Compound,Ex Vivo Depletion Assay pEC50 [1],ADCC Reporter Assay pEC50 [2],pKd of Antibody for ARM Compound of Formula (I) [3],% Depletion of CCR2 expressing cells [4] [%],EC50 [1] [nM],EC50 [2],concentration at 48 h [5] [ng/mL]
"CN1C(=O)C[C@H](C(=O)NCCCOCCCNC(=O)CCCC(=O)NC2CCC(C(=O)N[C@@H]3C[C@H](NC(C)(C)C)CC[C@@H]3N3CC[C@H](Nc4ncnc5ccc(C(F)(F)F)cc45)C3=O)CC2)[C@H]1c1cccnc1 (stereo partly drawn) [Example 22, N1-((1R,4r)-4-(((1R,2S,5R)-5-(tert-Butylamino)-2-((S)-2-oxo-3-((6-(trifluoromethyl)quinazolin-4-yl)amino)pyrrolidin-1-yl)cyclohexyl)carbamoyl)cyclohexyl)-N5-(3-(3-((2S,3S)-1-methyl-5-oxo-2-(pyridin-3-yl)pyrrolidine-3-carboxamido)propoxy)propyl)glutaramide]",9.2,9 and 9.3,9.2495,–,–,–,–
"CC(C)N(C)[C@@H]1CC[C@H](N2CC[C@H](Nc3ncnc4ccc(C(F)(F)F)cc34)C2=O)[C@H](NC(=O)[C@H]2CC[C@H](N3CCN(S(=O)(=O)C4CCN(C(=O)[C@H](C)NC(=O)[C@H]5CC(=O)N(C)[C@@H]5c5cccnc5)CC4)CC3)CC2)C1 [Example 70, (2S,3S)-N-((S)-1-(4-((4-((1R,4S)-4-(((1R,2S,5R)-5-(isopropyl(methyl)amino)-2-((S)-2-oxo-3-((6-(trifluoromethyl)quinazolin-4-yl)amino)pyrrolidin-1-yl)cyclohexyl)carbamoyl)cyclohexyl)piperazin-1-yl)sulfonyl)piperidin-1-yl)-1-oxopropan-2-yl)-1-methyl-5-oxo-2-(pyridin-3-yl)pyrrolidine-3-carboxamide]",–,–,–,30.51,0.1,0.794 nM,2.3
"CC(C)N(C)[C@@H]1CC[C@H](N2CC[C@H](Nc3ncnc4ccc(C(F)(F)F)cc34)C2=O)[C@H](NC(=O)[C@H]2CC[C@@H](N3CCN(S(=O)(=O)C4CCN(C(=O)[C@H](C)NC(=O)[C@H]5CC(=O)N(C)[C@@H]5c5cccnc5)CC4)CC3)CC2)C1 [Example 71, (2S,3S)-N-((S)-1-(4-((4-((1S,4R)-4-(((1R,2S,5R)-5-(Isopropyl(methyl)amino)-2-((S)-2-oxo-3-((6-(trifluoromethyl)quinazolin-4-yl)amino)pyrrolidin-1-yl)cyclohexyl)carbamoyl)cyclohexyl)piperazin-1-yl)sulfonyl)piperidin-1-yl)-1-oxopropan-2-yl)-1-methyl-5-oxo-2-(pyridin-3-yl)pyrrolidine-3-carboxamide]",–,–,–,35.25,0.794,10 nM,1
"CC(C)N(CCOCCOCCC(=O)N[C@H]1CC[C@@H](C(=O)N[C@@H]2C[C@H](N(C)C(C)C)CC[C@@H]2N2CC[C@H](Nc3ncnc4ccc(C(F)(F)F)cc34)C2=O)CC1)C(=O)CCNC(=O)[C@H]1CC(=O)N(C)[C@@H]1c1cccnc1 [Example 178, (2S,3S)-N-(3-(Isopropyl(2-(2-(3-(((1S,4s)-4-(((1R,2S,5R)-5-(isopropyl(methyl)amino)-2-((S)-2-oxo-3-((6-(trifluoromethyl)quinazolin-4-yl)amino)pyrrolidin-1-yl)cyclohexyl)carbamoyl)cyclohexyl)amino)-3-oxopropoxy)ethoxy)ethyl)amino)-3-oxopropyl)-1-methyl-5-oxo-2-(pyridin-3-yl)pyrrolidine-3-carboxamide]",–,–,–,–,0.398,0.501 nM and 0.126 nM,–
